According to article PMC8949893, “Chemical Synthesis, Pharmacokinetic Properties and Biological Effects of JM-00266, a Putative Non-Brain Penetrant Cannabinoid Receptor 1 Inverse Agonist” (International Journal of Molecular Sciences, 2022):

Legend:
[1] = Plasma kinetic profile after i.p., oral or intravenous administration; assay type: in vivo, mice; conditions: for Maximal drug plasma concentration: n = 4
Method: (§1) At 1, 2, 4 and 8 h post-administration, animals were killed by cervical dislocation and blood was collected from the vena cava into tubes containing heparin and centrifuged immediately at 6500× g for 10 min at 4 °C. For determination of tissue distribution, brain, liver and adipose tissue were collected 4 h post-gavage. Plasma and tissue samples were directly extracted for further analysis by Liquid chromatography coupled to tandem mass spectrometry (LC-MS/MS).
(§2) Tissues were homogenized with a mini-bead beater (BioSpec Products, Bartlesville, OK) in 10 volumes of acetonitrile containing 15 ng of internal standard, JM-00252. Blood samples were centrifuged at 6500× g during 10 min 4 °C and 5 µL of plasma were diluted in 10 volumes of acetonitrile containing 15 ng of internal standard. Then, each homogenate of tissue or plasma was centrifuged for 10 min at 6500× g and the supernatant was recovered and carefully transferred to new glass tubes. Finally, the extract was injected into a 1200 LC system coupled to a 6460-QqQ MS/MS system equipped with a JetStream ESI source (Agilent technologies, Les Ulis, France). Separation was achieved on a Poroshell 120 EC-C8 2.1 mm × 100 mm, 2.7 µm column (Agilent technologies) at a flow rate of 0.4 mL.min^−1, 55 °C, with a linear gradient of (solvent A) water containing 1 mM ammonium formate and 0.2% formic acid and (solvent B) methanol containing 1 mM ammonium formate and 0.2% formic acid and as follows: 50% B for 1 min, up to 100% B in 4 min, and then maintained at 100% for 2 min. The acquisition was performed in positive Single Reaction Monitoring (SRM) mode (source temperature: 300 °C, nebulizer gas flow rate was 10 L·min^−1, 15 psi, sheath gas flow 7 L·min^−1, temperature 225 °C, capillary 4000 V, nozzle 1500 V). […] Results are expressed as ng·g^−1 for tissues and ng·mL^−1 for plasma.

[2] = Tissue distribution 4 h after gavage; assay type: in vivo; conditions: mice, 4 h after gavage in oil, 10 mg·kg−1
Method: as §1, §2

Brain/plasma ratio (B/P) = assay type: in vivo; conditions: mice; for Effect of the administration route on distribution in brain and plasma: 10 mg·kg−1, i.p. vs oral; for Kp: mouse, brain, intraperitoneal
Method: as §2
Brain/plasma ratios (B/P) were determined as previously described. […] Blood and brain were collected and directly extracted for further analysis by LC-MS/MS.

mice [3] = experiment: Food intake in 24-h food-deprived mice; assay type: in vivo; conditions: ACEA 1 mg/kg i.p.; for Cumulative 3-h food intake, co-administration with ACEA: Rimonabant 10 mg·kg−1, JM-00266 20 mg·kg−1
Method: For food intake experiments, mice were food-deprived for 24 h before being submitted to an i.p. injection of ACEA (1 mg·kg^−1). […] Cumulative food intake was measured every hour over a period of 3 h from refeeding.

mice [4] = experiment: Body (rectal) temperature measurement; assay type: in vivo; conditions: for Effect on hypothermic response to ACEA: pre-treatment 20 min before ACEA 1 mg·kg−1, Rimonabant 10 mg·kg−1, JM-00266 20 mg·kg−1, t = 30 min
Method: Mice rectal temperature was assessed using a VT4810 controller (Vertex Technology Corp., New Taipei City, Taiwan) adapted with a mouse rectal probe. In the first experiment, the impact of anandamide (10 mg·kg^−1) on body temperature was recorded during 30 min on animals injected either 20 min earlier with vehicle or JM-00266 (20 mg·kg^−1).

mice [5] = experiment: Open field test (anxiety-related behavior); assay type: in vivo; conditions: 10 mg·kg−1 i.p. 30 min before, 10 min exploration
Method: Anxiety-related behavior was assessed using the open field test (OF; Mouse Open Field Arena ENV-510; Med Associates Inc., Fairfax, VT, USA). […] The two regions were defined by grid lines that divided each box into the center and periphery, with each of the four lines being 11 cm from each wall.

mice [6] = experiment: Gastro-intestinal transit (charcoal marker); assay type: in vivo
Method: Short-term effects of JM-00266 on gastro-intestinal transit were tested as an indicator of peripheral CB1R activity. Transit was measured by administering a non-absorbed marker (10% charcoal suspension in 5% gum arabic) as previously described.

murine CB1R = target: T1, murine CB1R (Mus musculus, UniProt P47746); experiment: GloSensor cAMP functional assay in CB1R-transfected HEK293T/17 cells; assay type: cell-based
T1 construct: host or cells: HEK293T/17
Method: GloSensor™ cAMP assay designed by Promega (Charbonnières-les-Bains, France) was used to monitor activation of CB1R. HEK293T/17 cells obtained from the American Type Cell Culture Collection (LGC Promochem, Molsheim, France) were seeded at 30,000 cells per well on poly-D-lysine coated 96-well plates (BD Biosciences, Le Pont de Claix, France). They were grown in Dulbecco’s Modified Eagle Medium (DMEM, Waltham, MA, USA) containing 2 mM glutamax and 10% fetal bovine serum. Twenty-four hours later, cells were transiently co-transfected with 50 ng per well of pcDNA3-mouse CB1R (plasmid #13391 supplied by Addgene, Cambridge, MA, USA) which was a gift from Mary E. Abood (California Pacific Medical Center Research Institute, San Francisco, California) and pGlo™-22F cAMP plasmid-luciferase (100 ng per well) allowing these cells to produce light proportionally to intracellular CB1R-dependent cAMP level. Transfection was performed using the Fugene®HD transfection reagent (Promega) for 24 h according to the manufacturer’s instructions. Mock transfections were performed with the empty vector pcDNA3. Twenty-four hours after transfection, cells were equilibrated for 2 h with a CO2-independent medium (Gibco®, Life Technologies, Courtaboeuf, France) supplemented with the GloSensor™ cAMP reagent before adding tested compounds. When a steady-state basal signal was obtained, cells were incubated for 10 min with 1 µM forskolin (Sigma) at room temperature to enhance the intracellular basal cAMP level. Then increasing concentrations of JM-00266 (0.1 µM to 1 mM) were added in the reaction medium in the presence or absence of anandamide (0.1 µM to 1 µM) and luminescence was measured for 20 min with a Victor 3V plate reader (Perkin Elmer, Courtaboeuf, France). […] When GloSensor™ cAMP assays were carried out in the presence of 0.1 µg·mL^−1 pertussis toxin (Sigma), this compound was added in the incubation medium 24 h before incubation with forskolin. All assays were performed in duplicate and each experiment was repeated three times. Results were expressed as the percentage of forskolin-stimulated luciferase activity. The EC50 values were generated using the Sigma Plot software.

C57BL/6 wild type mice [7] = experiment: Oral glucose tolerance test (OGTT) in wild type mice; assay type: in vivo
Method: (§3) To test acute effects of JM-00266 on glucose metabolism and their specificity to CB1R, C57BL/6 wild type mice and CB1R^−/− mice fasted for 6 h were subjected to an oral glucose tolerance test (OGTT, 2 g·kg^−1 glucose) and to an insulin tolerance test (ITT) using 0.5 UI·kg^−1 insulin (Actrapid, Novo Nordisk, La Défense, France) 10 min after i.p. injection of JM-00266 (10 mg·kg^−1) or vehicle. For both tests, glycemia was monitored during 120 min post-injection with a My Life Pura TM glucose meter (Ypsomed, Paris, France) directly on a blood drop from the tail. Corresponding AUC0–2 h were calculated.

C57BL/6 wild type mice [8] = experiment: Insulin tolerance test (ITT); assay type: in vivo; conditions: 10 mg·kg−1 i.p. 10 min before insulin 0.5 UI·kg−1
Method: as §3

CB1R−/− mice = experiment: Oral glucose tolerance test (OGTT) in CB1R−/− mice; assay type: in vivo; conditions: 10 mg·kg−1 i.p. 10 min before glucose gavage
Method: as §3

mice [9] = experiment: In vivo lipolysis: plasma glycerol appearance after BRL37344; conditions: JM-00266 i.p. 4 h before BRL37344 5 mg·kg−1 i.p.
Method: In vivo experiments. Overnight-fasted mice were injected i.p. with JM-00266 (mg·kg^−1) or vehicle. Four hours later, mice were injected i.p. with the specific ß3-adrenergic receptor agonist, BRL37344 (5 mg·kg^−1). Blood samples (~25 µL) were collected from tails in tubes containing EDTA (Sarstedt, Nümbrecht, Germany) at times 0, 15, 30, 45 and 60 min after BRL37344 injection to measure plasma glycerol appearance using a colorimetric assay (glycerol FS, DiaSys, Condom, France).

[10] = test system: visceral adipose tissue explants; experiment: In vitro lipolysis: glycerol release by adipose tissue explants from treated mice; conditions: explants from mice injected with JM-00266 10 mg·kg−1 4 h before sacrifice, 1 h culture
Method: In vitro experiments. Overnight-fasted mice were injected i.p. with JM-00266 (mg·kg^−1) or vehicle. Four hours later, mice were anesthetized with pentobarbital (50 mg·kg^−1) and epididymal adipose tissue was collected, rinsed in a warm medium (DMEM-HAM/F12) supplemented with 1% BSA, and dissected into ~10 mg pieces. Then, 5–6 explants were incubated in a 5% CO2 atmosphere at 37 °C under slight agitation in 1 mL of the same medium. Free glycerol in the culture medium was determined after 1 h of incubation using a colorimetric assay (glycerol FS, DiaSys).

[11] = 10 mg·kg−1, i.p. or oral, DMSO/Tween 80 aqueous solution, at maximal absorption time point

T1 sequence (P47746 whole entry): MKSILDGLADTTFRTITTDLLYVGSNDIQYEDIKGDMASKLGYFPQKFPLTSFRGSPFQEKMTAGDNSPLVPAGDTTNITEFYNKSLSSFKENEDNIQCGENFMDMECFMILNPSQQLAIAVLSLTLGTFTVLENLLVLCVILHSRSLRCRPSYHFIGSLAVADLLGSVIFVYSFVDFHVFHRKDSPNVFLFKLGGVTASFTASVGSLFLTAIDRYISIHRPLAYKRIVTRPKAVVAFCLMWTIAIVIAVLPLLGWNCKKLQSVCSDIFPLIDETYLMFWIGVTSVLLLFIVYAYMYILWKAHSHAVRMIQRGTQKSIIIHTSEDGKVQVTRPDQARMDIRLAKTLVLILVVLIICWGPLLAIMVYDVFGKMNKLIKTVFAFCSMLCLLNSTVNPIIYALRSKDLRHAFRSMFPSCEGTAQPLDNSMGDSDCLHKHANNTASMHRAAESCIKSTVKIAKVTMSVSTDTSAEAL

SMILES: Cc1c(C(=O)NN2CCCCC2)nn(-c2ccc(Cl)cc2Cl)c1-c1ccc(Cl)cc1 [Rimonabant, reference compound]
- Bioavailability compared with JM-00266, whatever the administration route ([1]; mice, 10 mg·kg−1, i.p. or oral): far higher
- Tissue distribution (plasma, brain, liver, visceral adipose tissue) [2]: preferentially accumulated in the liver and the adipose tissue whereas brain concentration remained very low
- Effect of the administration route on distribution in brain and plasma (Brain/plasma ratio (B/P)): strongly affected
- Kp (Brain/plasma ratio (B/P); [11]): > 1
- Cumulative 3-h food intake, co-administration with ACEA (mice [3]): strong hypophagia
- Effect on hypothermic response to ACEA (mice [4]): fully inhibited the hypothermic response
- Open field: locomotor activity (total ambulatory distance) (mice [5]): did not significantly alter
- Open field: number of center entries (mice [5]): did not significantly alter
- Open field: time spent in the center (mice [5]): significantly decreased

SMILES: CCCCC/C=C\C/C=C\C/C=C\C/C=C\CCCC(=O)NCCO [anandamide, Arachidonylethanolamide, reference compound]
- Effect on rectal temperature, agonist alone (mice [4]; anandamide 10 mg·kg−1): decrease in rectal temperature
- Effect on gastro-intestinal transit, agonist alone (mice [6]; anandamide 10 mg·kg−1): slowing down of gastro-intestinal transit

SMILES: CSc1ccc(C2C(N3C(=O)c4ccccc4C3=O)C(=O)N2c2ccc(SC)cc2)cc1 (stereo not shown) [JM-00266, 1,4-di-(4-méthylthiophenyl)-3-phthaloylazetidin-2-one]
- Plasma clearance compared with Rimonabant ([1]; intravenous administration): slightly higher clearance
- Time of peak drug plasma concentration ([1]; mice, i.p. 10 mg·kg−1, DMSO/Tween solution): 30 min
- Maximal drug plasma concentration ([1]; mice, i.p. 10 mg·kg−1, mean ± SEM): 378 ± 27 ng/mL
- Time of peak drug plasma concentration ([1]; mice, oral 10 mg·kg−1, dissolved in oil): 60 min
- Maximal drug plasma concentration ([1]; mice, oral 10 mg·kg−1, mean ± SEM): 203 ± 18 ng/mL
- Concentrations in plasma and tissues compared with Rimonabant [2]: lower concentrations in plasma and tissues than Rimonabant
- Tissue distribution (plasma, brain, liver, visceral adipose tissue) [2]: preferentially accumulated in the liver and the adipose tissue whereas brain concentration remained very low
- Brain/plasma ratio (B/P) (Brain/plasma ratio (B/P); [11]): significantly lower
- Effect of the administration route on distribution in brain and plasma (Brain/plasma ratio (B/P)): not modified
- Kp (Brain/plasma ratio (B/P); [11]): 0.3 to 0.5
- Effect on cAMP formation, compound alone (murine CB1R; HEK293T/17 cells transfected with murine CB1R, 0.1 µM to 1 mM): dose-dependent increase in cAMP formation
- EC50 (murine CB1R; HEK293T/17 cells transfected with murine CB1R, forskolin 1 µM, GloSensor luminescence, read-out: EC50, increase in cAMP formation (inverse agonism)): 249 µM
- cAMP response with increasing concentrations of anandamide (murine CB1R; anandamide 0.1 µM to 1 µM): lost
- cAMP response in the presence of pertussis toxin (murine CB1R; pertussis toxin 0.1 µg·mL−1 added 24 h before): lost
- Cumulative 3-h food intake, co-administration with ACEA (mice [3]): not observed
- Effect on anandamide-induced decrease in rectal temperature (mice [4]; JM-00266 20 mg·kg−1 20 min before anandamide 10 mg·kg−1, 30 min recording): not able to counteract the decrease in rectal temperature
- Effect on hypothermic response to ACEA (mice [4]): had no effect
- Open field: locomotor activity (total ambulatory distance) (mice [5]): did not alter
- Open field: number of center entries (mice [5]): did not alter
- Open field: time spent in the center (mice [5]): did not alter
- Effect on anandamide-induced slowing down of gastro-intestinal transit (mice [6]; JM-00266 10 mg·kg−1 10 min before anandamide 10 mg·kg−1): abrogated
- Plasma insulin levels during OGTT (C57BL/6 wild type mice [7]; 10 mg·kg−1 i.p.): lower than vehicle
- Glucose tolerance (OGTT) vs vehicle (C57BL/6 wild type mice [7]; 10 mg·kg−1 i.p. 10 min before glucose gavage 2 g·kg−1): improved glucose tolerance
- Glycemia during ITT (insulin sensitivity) (C57BL/6 wild type mice [8]): lower glycemia over time compared to vehicle treated mice
- Glucose tolerance (OGTT) vs vehicle (CB1R−/− mice): failed to improve glucose tolerance
- ß-adrenergic-induced glycerol production (plasma glycerol) vs vehicle (mice [9]): increased
- Glycerol release by visceral adipose tissue explants vs control [10]: higher than in the control

SMILES: CCCCC/C=C\C/C=C\C/C=C\C/C=C\CCCC(=O)NCCCl.O [ACEA, Arachidonyl-2′-chloroethylamide hydrate]
- Cumulative 3-h food intake, agonist alone (mice [3]): no effect on food intake
- Effect on rectal temperature, agonist alone (mice [4]; ACEA 1 mg·kg−1, t = 30 min): hypothermic response
